This note sets out measurements from patent US5622725A, “Wound disinfection and repair” (Alcide Corporation, priority 1996, dated 1997).

For assay [1], the system named is polymorphonuclear leukocytes. The assay is described as follows: Chemotaxis, cell integrity (lactate dehydrogenase) and morphology of isolated polymorphonuclear leukocytes. Format: cell-based. The settings on record: in vitro, ClO2 solution 3 to 300 ppm. The source says: To test whether methods of the invention can control the inflammatory response, isolated polymorphonuclear leukocytes, which are among the first cells to be found at a wound or a site of potential infection, are studied with respect to their response to chlorine dioxide solutions and compared with a control containing ibuprofen, a known non-steroid anti-inflammatorycompound. The choice of in vitro assay is chemotaxis.
Isolated polymorphonuclear leukocytes are studied with respect to their response to a ClO2 solution varying in concentration from 3 to 300 ppm and an ibuprofen control. Cellular response and integrity (chemotaxis)is assayed in vitro after incubating with both compounds by measuring lactate dehydrogenase activity and/or release concurrently with observing morphology using scanning electron microscopy and/or transmission electron microscopy.
The results are graphically illustrated in FIGS. 1 to 3. The x-axis in the figures show dilutions of a 0.5 mg/ml ibuprofen solution, and chlorine dioxide solutions prepared by combining lactic acid with sodium chlorite and diluting to yield chlorine dioxide concentrations as follows: […], 1:10 is 60 ppm ClO2, 1:20 is 30 ppm ClO2, 1:50 is 12 ppm ClO2, 1:100 is 6 ppm ClO2, 1:150 is 4 ppm ClO2, and 1:200 is 3 ppm ClO2.
A negative control is denoted by .smallcircle.. […]

A short description of assay [2]: Free radical signal by electron spin resonance (ESR). The settings on record: One hundred-fold dilutions, within one minute after mixing. How it is done:
ClO2 (75 ppm) is generated by mixing 0.25% chlorite and 1.4% lactic acid. One hundred-fold dilutions are tested within one minute after mixing using electron paramagnetic spectroscopy (ESR) and a LKB luminometer.
For the ESR assay, the chlorine dioxide solution is frozen in liquid nitrogen to -167° C. and electron spin resonance analyzed using a Varian E3 instrument.

The test system of the next assay is Bacteroides species. The assay is described as follows: Cidal activity of 50 ppm ClO2. The format is cell-based. The settings on record: within one minute. The text has this:
(§1) This invention provides a quick-acting, broad-spectrum antimicrobial, that is not absorbed systemically because it is rapidly eliminated or degraded. The inventive compositions have the requisite, extended range of antimicrobial action, rapidity of kill and degradability for this application. […] ClO2 reacts with oxidizable bonds of these organisms and other organic matter and, as a result, is reduced to lower oxidation states: initially chlorite and ultimately chloride. The latter is present at high levels in the body (ca. 0.5% of cellular fluids), so that the small amount formed by ClO2 degradation (in the parts per million range) would disappear into that pool. Compatability of these disinfecting peritoneal flush solutions is also appropriate, since the ClO2 is generated or dissolved in solutions which have osmotic pressures that are suitably isotonic with cellular fluids.

Another assay deals with Staphylococcus species. Kind of assay: Cidal activity of 50 ppm ClO2. Format: cell-based. The settings on record: within one minute.
Description: as §1

The subject of the next assay is Streptococcus species. The assay is described as follows: Cidal activity of 50 ppm ClO2. Format: cell-based. The settings on record: within one minute.
Description: as §1

The next assay relates to Pseudomonas aeruginosa. The assay is described as follows: Cidal activity of 50 ppm ClO2. The format is cell-based. The settings on record: within one minute.
Description: as §1

Another assay relates to Klebsiella pneumoniae. Kind of assay: Cidal activity of 50 ppm ClO2. Format: cell-based. The settings on record: within one minute.
Description: as §1

The test system of assay [3] is Escherichia coli and other coliforms. The assay is described as follows: Cidal activity of 50 ppm ClO2. The format is cell-based. The settings on record: within one minute.
Description: as §1

Assay [4] has as its system free radicals generated by xanthine oxidase (XO) on xanthine. The assay is described as follows: Scavenging of free radicals generated by xanthine oxidase on xanthine (ferricytochrome C reduction). The format is biochemical. The source says:
Since recent studies indicate that the superoxide radical is the active form of oxygen in the prolyl and lysyl hydrolyase reactions during collagen synthesis, this example assesses the effects that compositions of the invention have on free radicals.
Free radicals are generated in vitro by the action of xanthine oxidase (XO) on xanthine. The generation of free radicals is monitored by the reduction of ferricytochrome C by the system. The action of chlorine dioxide is compared with the scavenging action of the well known free radical scavengers superoxide dismutase (SOD) and catalase.
The experiments are divided into three groups. In the first group, 50 μmoles of xanthine, 0.0217 units/mg XO, 0.1 mM EDTA are mixed in a total volume of 1.0 ml Hank's Balanced Salt Solution (HBSS). This generated 64 ±8 nmoles oxygen. In the second group, 0.3125 units/mg SOD and 1,300 units catalase are added to the reagents employed in group 1; this yields 19.4 nmoles oxygen. […] In the third group, chlorine dioxide is substituted for the SOD and catalase in the same system; a chlorine dioxide concentration of about 7.5 ppm inhibits free radical formation by 74% and at a concentration of 15 ppm, by 100%.

Each structure is given as a SMILES string.

Consider `[O][Cl+][O-]` [ClO2, chlorine dioxide], for which the “effect on chemotaxis / quality and morphology of polymorphonuclear leukocytes” value in assay [1] is “control chemotaxis by affecting the quality and morphology of the associated polymorphonuclear leukocytes”; in assay [1] (listed as ClO2 solution), “affected both the quality and morphology of polymorphonuclear leukocytes”. The free radical signal entry in [2] was “A strong free radical signal is generated”. For the same compound, the kill (in the assay with Bacteroides species; in the assay on Staphylococcus species; with Streptococcus species; in the assay on Pseudomonas aeruginosa; in the assay with Klebsiella pneumoniae; in assay [3]) was 6 logs/ml each time. The “inhibition of free radical formation” value is 100% in assay [4] (15 ppm chlorine dioxide); 74% in assay [4] (about 7.5 ppm chlorine dioxide); “neutralize the superoxide and related radicals” in [4] (in words).
